Data as given in patent US6875761B2 (Eisai Co., Ltd., priority 1997, dated 2005).
Where a name gives a salt, the structure may show the parent alone.

**Q.** With `CCN1CCN(c2nc(-c3ccc(OCCCc4ccncc4)cc3)cc3ccccc23)CC1` (as salt: hydrochloride) [Example 57, 3-{4-[3-(4-Pyridyl)Propoxy]Phenyl}-1-(4-Ethylpiperazin-1-Yl)Isoquinoline Hydrochloride] as the compound, how does the melting point read?
**A.** The melting point was 129 to 131 °C.

**Q.** Which melting point does the source give for `CCNC(=O)Oc1ccc(-c2cc3ccccc3c(N3CCN(CC)CC3)n2)cc1` (as salt: hydrochloride) [Example 59] here?
**A.** Its melting point is 146 to 150 °C.

**Q.** Which melting point does the source give for `CCN1CCN(c2nc(-c3ccc(C#N)cc3)cc3ccccc23)CC1` (as salt: hydrochloride) [Example 62, 3-(4-Cyanophenyl)-1-(4-Ethylpiperazin-1-Yl)Isoquinoline Hydrochloride] here?
**A.** Its melting point is 241 °C (dec.).

**Q.** With `CCCNC(=O)c1ccc(-c2cc3ccccc3c(N3CCN(CC)CC3)n2)cc1` (as salt: hydrochloride) [Example 63, 1-(4-Ethylpiperazin-1-Yl)-3-(4-N-Propylaminocarbonylphenyl)Isoquinoline Hydrochloride] as the compound, how does the melting point read?
**A.** Its melting point is 149 to 150 °C.

**Q.** Which melting point does the source give for `CCN1CCN(c2nc(-c3ccc(C4=CCC(O)CC4)cc3)cc3ccccc23)CC1` (stereo not shown) (as salt: hydrochloride) [Example 64, 3-[4-(4-Hydroxy-1-Cyclohexen-1-Yl)Phenyl]-1-(4-Ethylpiperazin-1-Yl)Isoquinoline Hydrochloride] here?
**A.** Its melting point is 164 to 166 °C.

**Q.** With `CCN1CCN(c2nc(-c3ccc(N)cc3)cc3ccccc23)CC1` (as salt: hydrochloride) [Example 65, 3-(4-Aminophenyl)-1-(4-Ethylpiperazin-1-Yl)Isoquinoline Hydrochloride] as the compound, how does the melting point read?
**A.** Its melting point is 267 to 268 °C.

**Q.** With `CCN1CCN(c2nc(-c3ccc(N(C)C)cc3)cc3ccccc23)CC1` (as salt: hydrochloride) [Example 66, 3-[4-(N,N-Dimethylamino)Phenyl]-1-(4-Ethylpiperazin-1-Yl)Isoquinoline Dihydrochloride] as the compound, how does the melting point read?
**A.** The melting point was 160 to 162 °C (dec.).

**Q.** For `CCN1CCN(c2nc(-c3ccc(NC(C)=O)cc3)cc3ccccc23)CC1` (as salt: hydrochloride) [Example 68, 3-(4-Acetamidephenyl)-1-(4-Ethylpiperazin-1-Yl)Isoquinoline Hydrochloride], which melting point is on record?
**A.** The melting point was 180 to 182 °C.

**Q.** With `CCC(=O)Nc1ccc(-c2cc3ccccc3c(N3CCN(CC)CC3)n2)cc1` (as salt: hydrochloride) [Example 69, 3-(4-Ethylcarbonylaminophenyl)-1-(4-Ethylpiperazin-1-Yl)Isoquinoline Hydrochloride] as the compound, how does the melting point read?
**A.** The melting point was 176 to 178 °C.

**Q.** With `CCCC(=O)Nc1ccc(-c2cc3ccccc3c(N3CCN(CC)CC3)n2)cc1` (as salt: hydrochloride) [Example 70, 3-(4-Propylcarbonylaminophenyl]-1-(4-Ethylpiperazin-1-Yl)Isoquinoline Hydrochloride] as the compound, how does the melting point read?
**A.** Its melting point is 170 to 172 °C.

**Q.** With `CCN1CCN(c2nc(-c3ccc(NS(=O)(=O)CC)cc3)cc3ccccc23)CC1` (as salt: hydrochloride) [Example 71, 3-(4-Ethylsulfonylaminophenyl)-1-(4-Ethylpiperazin-1-Yl)Isoquinoline Hydrochloride] as the compound, how does the melting point read?
**A.** Its melting point is 198 to 201 °C.

**Q.** Which melting point does the source give for `CCCS(=O)(=O)Nc1ccc(-c2cc3ccccc3c(N3CCN(CC)CC3)n2)cc1` (as salt: hydrochloride) [Example 72, 3-(4-Propylsulfonylaminophenyl)-1-(4-Ethylpiperazin-1-Yl)Isoquinoline Hydrochloride] here?
**A.** Its melting point is 163 to 165 °C.

**Q.** With `CCCCS(=O)(=O)Nc1ccc(-c2cc3ccccc3c(N3CCN(CC)CC3)n2)cc1` (as salt: hydrochloride) [Example 73, 3-(4-Butylsulfonylaminophenyl)-1-(4-Ethylpiperazin-1-Yl)Isoquinoline Hydrochloride] as the compound, how does the melting point read?
**A.** The melting point was 160 to 163 °C.

**Q.** With `CCN1CCN(c2nc(-c3ccc(S(=O)(=O)N4CCSCC4)cc3)cc3ccccc23)CC1` (as salt: hydrochloride) [Example 76, 3-[(4-Thiomorpholinyl)Sulfonylphenyl]-1-(4-Ethylpiperazin-1-Yl)Isoquinoline Hydrochloride] as the compound, how does the melting point read?
**A.** The melting point was 268 to 270 °C (dec.).

**Q.** Which melting point does the source give for `CCN1CCN(c2nc(-c3ccc(S(=O)(=O)N4CCS(=O)(=O)CC4)cc3)cc3ccccc23)CC1` (as salt: hydrochloride) [Example 77, 3-[(1,1-Dioxythiomorpholinyl)Sulfonylphenyl]-1-(4-Ethylpiperazin-1-Yl)Isoquinoline Hydrochloride] here?
**A.** Its melting point is 198 to 200 °C.

**Q.** With `CCN1CCN(c2nc(-c3ccc(CCNS(=O)(=O)CC)cc3)cc3ccccc23)CC1` (as salt: hydrochloride) [Example 79, 3-(4-Ethylsulfonylaminoethylphenyl)-1-(4-Ethylpiperazin-1-Yl)Isoquinoline Hydrochloride] as the compound, how does the melting point read?
**A.** Its melting point is 194 to 197 °C.

**Q.** For `CCNS(=O)(=O)Cc1ccc(-c2cc3ccccc3c(N3CCN(CC)CC3)n2)cc1` (as salt: hydrochloride) [Example 80, 3-(4-Ethylaminosulfonylmethylphenyl)-1-(4-Ethylpiperazin-1-Yl)Isoquinoline Hydrochloride], which melting point is on record?
**A.** The melting point was 154 to 156 °C.

**Q.** For `CCCNS(=O)(=O)Cc1ccc(-c2cc3ccccc3c(N3CCN(CC)CC3)n2)cc1` (as salt: hydrochloride) [Example 81, 3-(4-Propylaminosulfonylmethylphenyl)-1-(4-Ethylpiperazin-1-Yl)Isoquinoline Hydrochloride], which melting point is on record?
**A.** The melting point was 194 to 197 °C.

**Q.** Which melting point does the source give for `CCN1CCN(c2nc(-c3ccc(C4CCOCC4)cc3)cc3ccccc23)CC1` (as salt: hydrochloride) [Example 83, 3-[4-(Tetrahydropyran-4-yl)phenyl]-1-(4-ethylpiperazin-1-yl)isoquinoline Hydrochloride] here?
**A.** Its melting point is 148 to 150 °C.

**Q.** For `CCN1CCN(c2nc(-c3ccc(C4=CCOCC4)cc3)cc3ccccc23)CC1` (as salt: hydrochloride) [Example 84, 3-[4-(5,6-Dihydro-2H-pyran-4-yl)phenyl]-1-(4-ethylpiperazin-1-yl)isoquinoline Hydrochloride], which melting point is on record?
**A.** Its melting point is 170 to 172 °C.

**Q.** Which melting point does the source give for `CCC(=O)NCc1ccc(-c2cc3ccccc3c(N3CCN(CC)CC3)n2)cc1` (as salt: hydrochloride) [Example 85, 3-(4-Ethylcarbonylaminomethylphenyl)-1-(4-ethylpiperazin-1-yl)isoquinoline Hydrochloride] here?
**A.** The melting point was 171 to 174 °C.

**Q.** For `CCCC(=O)NCc1ccc(-c2cc3ccccc3c(N3CCN(CC)CC3)n2)cc1` (as salt: hydrochloride) [Example 86, 3-(4-Propylcarbonylaminomethylphenyl)-1-(4-ethylpiperazin-1-yl)isoquinoline Hydrochloride], which melting point is on record?
**A.** The melting point was 126 to 128 °C.

**Q.** With `CCNC(=O)Cc1ccc(-c2cc3ccccc3c(N3CCN(CC)CC3)n2)cc1` (as salt: hydrochloride) [Example 87, 3-(4-Ethylaminocarbonylmethylphenyl)-1-(4-ethylpiperazin-1-yl)isoquinoline Hydrochloride] as the compound, how does the melting point read?
**A.** Its melting point is 143 to 145 °C.

**Q.** Which melting point does the source give for `CCCNC(=O)Cc1ccc(-c2cc3ccccc3c(N3CCN(CC)CC3)n2)cc1` (as salt: hydrochloride) [Example 88, 3-(4-Propylaminocarbonylmethylphenyl)-1-(4-ethylpiperazin-1-yl)isoquinoline Hydrochloride] here?
**A.** Its melting point is 138 to 141 °C.

**Q.** Which melting point does the source give for `CCCCNC(=O)Cc1ccc(-c2cc3ccccc3c(N3CCN(CC)CC3)n2)cc1` (as salt: hydrochloride) [Example 89, 3-(4-Butylaminocarbonylmethylphenyl)-1-(4-ethylpiperazin-1-yl)isoquinoline Hydrochloride] here?
**A.** Its melting point is 133 to 136 °C.
